Source: paper PMC7462985, “Inhibitors of BRAF dimers using an allosteric site” (Nature Communications, 2020)

Tests used:
[1] = system: melanoma cells dependent on BRAF^V600E, p61BRAF^V600E, and RAS^MUT/BRAF^WT; assay: 3D culture colony formation; type: cell-based; conditions: 0.1-10 μM, 5th day of culture, compared to Vemurafenib
Experimental: 3D laminin-rich extracellular matrix cultures were prepared by trypsinization of melanoma cells from tissue culture plastic, seeding of single cells on top of a thin layer of Growth Factor-Reduced Matrigel (BD Biosciences, Franklin Lakes, NJ), and the addition of a medium containing 5% Matrigel. The cells were seeded at the density of 40,000 cells per cm^2. All 3D cell cultures were performed in DMEM supplemented with 5 μg/mL bovine insulin with Zinc (Gibco), 15 μg/mL bovine pituitary extract (Gibco), 0.5 ng/mL epidermal growth factor (Sigma-Aldrich, St. Louis, MO) and 2% fetal bovine serum. 3D cultures were maintained with media and/or drug-treatment changes every second day, and photographs were taken at the end of the 5th day. The size of single cell colonies was estimated with ImageJ (Version 1.51).

BTK = target: T1, BTK (Homo sapiens, UniProt Q06187); assay: KINOMEscan scanEDGE binding; conditions: KinomeEDGE scan, compound at 1 μΜ
T1 construct: purchased Eurofins/DiscoverX KINOMEscan (scanEDGE panel)

CDK9 = target: T2, CDK9 (Homo sapiens, UniProt P50750); assay: KINOMEscan scanEDGE binding; conditions: KinomeEDGE scan, compound at 1 μΜ
T2 construct: purchased Eurofins/DiscoverX KINOMEscan (scanEDGE panel)

EGFR = target: T3, EGFR (Homo sapiens, UniProt P00533); assay: KINOMEscan scanEDGE binding; conditions: KinomeEDGE scan, compound at 1 μΜ
T3 construct: purchased Eurofins/DiscoverX KINOMEscan (scanEDGE panel)

EPHA2 = target: T4, EPHA2 (Homo sapiens, UniProt P29317); assay: KINOMEscan scanEDGE binding; conditions: KinomeEDGE scan, compound at 1 μΜ
T4 construct: purchased Eurofins/DiscoverX KINOMEscan (scanEDGE panel)

[2] = target: T5, JAK2(JH1domain-catalytic) (Homo sapiens, UniProt O60674); assay: KINOMEscan scanEDGE binding; conditions: KinomeEDGE scan, compound at 1 μΜ
T5 construct: JAK2(JH1domain-catalytic); purchased Eurofins/DiscoverX KINOMEscan (scanEDGE panel)

MKNK2 = target: T6, MKNK2 (Homo sapiens, UniProt Q9HBH9); assay: KINOMEscan scanEDGE binding; conditions: KinomeEDGE scan, compound at 1 μΜ
T6 construct: purchased Eurofins/DiscoverX KINOMEscan (scanEDGE panel)

p38-alpha = target: T7, p38-alpha (Homo sapiens, UniProt Q16539); assay: KINOMEscan scanEDGE binding; conditions: KinomeEDGE scan, compound at 1 μΜ
T7 construct: purchased Eurofins/DiscoverX KINOMEscan (scanEDGE panel)

PKAC-alpha = target: T8, PKAC-alpha (Homo sapiens, UniProt P17612); assay: KINOMEscan scanEDGE binding; conditions: KinomeEDGE scan, compound at 1 μΜ
T8 construct: purchased Eurofins/DiscoverX KINOMEscan (scanEDGE panel)

[3] = target: T9, TYK2(JH1domain-catalytic) (Homo sapiens, UniProt P29597); assay: KINOMEscan scanEDGE binding; conditions: KinomeEDGE scan, compound at 1 μΜ
T9 construct: TYK2(JH1domain-catalytic); purchased Eurofins/DiscoverX KINOMEscan (scanEDGE panel)

BRAF^WT = target: T10, BRAF^WT (Homo sapiens, UniProt P15056); assay: SelectScreen Z'-LYTE kinase activity assay; type: biochemical; conditions: 100 μM ATP
T10 construct: purchased Invitrogen (SelectScreen service)
Experimental: (§1) BRAF kinase assays were performed using the Z’-LYTE™ enzymatic assay (Invitrogen, USA). […] Titrations were performed using a 1:3 dilution. Assays were performed using SelectScreen (Invitrogen).

PDFGRα = target: T11, PDFGRα (Homo sapiens, UniProt P16234); assay: SelectScreen kinase activity assay; type: biochemical; conditions: 100 μM ATP
T11 construct: purchased Invitrogen (SelectScreen service)
Experimental: as §1

[4] = target: T12, ABL1(E255K)-phosphorylated (Homo sapiens, UniProt P00519, E255K); assay: KINOMEscan scanEDGE binding; conditions: KinomeEDGE scan, compound at 1 μΜ
T12 construct: purchased Eurofins/DiscoverX KINOMEscan (scanEDGE panel)

ABL1-phosphorylated = target: T13, ABL1-phosphorylated (Homo sapiens, UniProt P00519); assay: KINOMEscan scanEDGE binding; conditions: KinomeEDGE scan, compound at 1 μΜ
T13 construct: purchased Eurofins/DiscoverX KINOMEscan (scanEDGE panel)

FGFR1 = FGFR1 (Homo sapiens, UniProt P11362); assay: SelectScreen kinase activity assay; type: biochemical; set-up: purchased Invitrogen (SelectScreen service)
Experimental: as §1

FLT3 = target: T14, FLT3 (Homo sapiens, UniProt P36888); assay: SelectScreen kinase activity assay; type: biochemical; set-up: purchased Invitrogen (SelectScreen service); conditions: PHI1 versus Ponatinib
T14 sequence (P36888 27-993): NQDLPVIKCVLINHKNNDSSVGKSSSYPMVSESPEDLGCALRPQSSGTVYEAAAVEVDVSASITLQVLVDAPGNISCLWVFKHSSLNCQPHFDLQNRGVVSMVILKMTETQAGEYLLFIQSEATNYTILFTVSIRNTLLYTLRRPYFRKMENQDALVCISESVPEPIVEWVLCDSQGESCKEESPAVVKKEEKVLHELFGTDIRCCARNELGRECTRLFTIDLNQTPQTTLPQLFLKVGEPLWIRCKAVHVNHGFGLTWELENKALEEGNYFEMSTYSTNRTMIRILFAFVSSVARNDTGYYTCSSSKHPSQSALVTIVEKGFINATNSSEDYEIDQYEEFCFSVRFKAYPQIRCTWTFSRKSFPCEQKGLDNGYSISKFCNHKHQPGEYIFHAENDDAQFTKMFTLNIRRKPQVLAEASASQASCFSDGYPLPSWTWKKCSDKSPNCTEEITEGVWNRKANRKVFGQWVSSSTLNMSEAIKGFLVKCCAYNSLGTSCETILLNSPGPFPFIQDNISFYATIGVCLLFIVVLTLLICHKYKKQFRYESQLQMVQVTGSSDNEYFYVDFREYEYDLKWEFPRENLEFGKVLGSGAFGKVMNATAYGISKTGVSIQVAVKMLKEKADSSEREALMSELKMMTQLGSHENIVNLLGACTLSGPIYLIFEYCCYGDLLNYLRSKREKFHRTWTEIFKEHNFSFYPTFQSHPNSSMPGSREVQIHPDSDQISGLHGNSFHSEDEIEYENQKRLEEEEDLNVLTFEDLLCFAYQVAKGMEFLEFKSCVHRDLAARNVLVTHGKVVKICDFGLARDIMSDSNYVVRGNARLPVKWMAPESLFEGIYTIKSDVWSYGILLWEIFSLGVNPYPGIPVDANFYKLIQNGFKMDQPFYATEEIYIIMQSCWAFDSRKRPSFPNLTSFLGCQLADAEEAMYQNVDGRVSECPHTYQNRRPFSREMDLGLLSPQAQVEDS
Experimental: as §1

KIT = KIT (Homo sapiens, UniProt P10721); assay: SelectScreen kinase activity assay; type: biochemical; set-up: purchased Invitrogen (SelectScreen service); conditions: 100 μM ATP
Experimental: as §1

FGFR1, sequence (P11362 22-822): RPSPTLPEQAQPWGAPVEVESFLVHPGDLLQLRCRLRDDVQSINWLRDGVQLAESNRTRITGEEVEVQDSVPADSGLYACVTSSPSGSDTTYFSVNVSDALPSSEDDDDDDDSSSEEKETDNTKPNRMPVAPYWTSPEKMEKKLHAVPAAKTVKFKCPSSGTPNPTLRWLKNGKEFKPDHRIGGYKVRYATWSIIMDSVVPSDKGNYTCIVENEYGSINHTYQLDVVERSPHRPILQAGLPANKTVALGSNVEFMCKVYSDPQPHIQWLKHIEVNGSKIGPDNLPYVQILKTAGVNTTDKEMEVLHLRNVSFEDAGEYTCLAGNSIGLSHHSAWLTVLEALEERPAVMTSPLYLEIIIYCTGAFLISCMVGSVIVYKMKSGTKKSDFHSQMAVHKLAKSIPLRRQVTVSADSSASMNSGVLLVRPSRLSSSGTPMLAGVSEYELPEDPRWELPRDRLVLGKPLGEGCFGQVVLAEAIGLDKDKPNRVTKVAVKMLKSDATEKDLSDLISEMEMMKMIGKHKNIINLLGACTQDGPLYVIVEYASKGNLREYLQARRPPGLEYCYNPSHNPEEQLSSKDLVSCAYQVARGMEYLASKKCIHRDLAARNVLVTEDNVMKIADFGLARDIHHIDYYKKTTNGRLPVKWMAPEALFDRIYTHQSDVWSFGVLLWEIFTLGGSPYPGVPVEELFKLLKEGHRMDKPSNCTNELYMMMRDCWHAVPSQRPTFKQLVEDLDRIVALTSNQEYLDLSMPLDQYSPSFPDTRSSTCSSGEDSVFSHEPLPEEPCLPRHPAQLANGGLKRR
T11 sequence (P16234 24-1089): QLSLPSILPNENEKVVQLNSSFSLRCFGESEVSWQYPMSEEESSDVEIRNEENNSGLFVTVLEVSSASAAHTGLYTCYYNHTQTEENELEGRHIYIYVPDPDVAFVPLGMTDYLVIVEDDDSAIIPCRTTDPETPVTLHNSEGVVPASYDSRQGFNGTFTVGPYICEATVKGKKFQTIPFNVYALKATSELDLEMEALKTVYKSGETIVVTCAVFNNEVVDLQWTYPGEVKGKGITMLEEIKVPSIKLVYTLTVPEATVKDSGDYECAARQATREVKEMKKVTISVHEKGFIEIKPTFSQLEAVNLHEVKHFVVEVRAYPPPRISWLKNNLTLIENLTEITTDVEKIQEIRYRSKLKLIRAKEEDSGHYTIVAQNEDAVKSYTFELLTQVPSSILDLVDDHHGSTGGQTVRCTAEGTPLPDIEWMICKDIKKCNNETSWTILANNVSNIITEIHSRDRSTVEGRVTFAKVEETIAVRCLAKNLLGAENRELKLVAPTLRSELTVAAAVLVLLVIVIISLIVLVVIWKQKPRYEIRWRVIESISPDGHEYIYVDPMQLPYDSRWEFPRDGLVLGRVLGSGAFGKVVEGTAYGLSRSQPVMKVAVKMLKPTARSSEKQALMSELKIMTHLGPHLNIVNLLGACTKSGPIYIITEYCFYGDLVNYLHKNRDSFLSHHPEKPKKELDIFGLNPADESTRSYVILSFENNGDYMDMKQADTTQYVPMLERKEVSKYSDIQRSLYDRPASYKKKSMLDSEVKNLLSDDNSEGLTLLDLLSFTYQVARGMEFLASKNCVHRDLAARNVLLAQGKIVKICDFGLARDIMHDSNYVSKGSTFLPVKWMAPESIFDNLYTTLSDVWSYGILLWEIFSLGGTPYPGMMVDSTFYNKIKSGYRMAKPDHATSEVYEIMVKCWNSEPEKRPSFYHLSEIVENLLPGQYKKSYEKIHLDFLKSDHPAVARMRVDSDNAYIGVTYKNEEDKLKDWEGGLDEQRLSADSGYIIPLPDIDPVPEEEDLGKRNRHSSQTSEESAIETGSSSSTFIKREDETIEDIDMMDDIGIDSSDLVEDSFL
T10 sequence (P15056 whole entry): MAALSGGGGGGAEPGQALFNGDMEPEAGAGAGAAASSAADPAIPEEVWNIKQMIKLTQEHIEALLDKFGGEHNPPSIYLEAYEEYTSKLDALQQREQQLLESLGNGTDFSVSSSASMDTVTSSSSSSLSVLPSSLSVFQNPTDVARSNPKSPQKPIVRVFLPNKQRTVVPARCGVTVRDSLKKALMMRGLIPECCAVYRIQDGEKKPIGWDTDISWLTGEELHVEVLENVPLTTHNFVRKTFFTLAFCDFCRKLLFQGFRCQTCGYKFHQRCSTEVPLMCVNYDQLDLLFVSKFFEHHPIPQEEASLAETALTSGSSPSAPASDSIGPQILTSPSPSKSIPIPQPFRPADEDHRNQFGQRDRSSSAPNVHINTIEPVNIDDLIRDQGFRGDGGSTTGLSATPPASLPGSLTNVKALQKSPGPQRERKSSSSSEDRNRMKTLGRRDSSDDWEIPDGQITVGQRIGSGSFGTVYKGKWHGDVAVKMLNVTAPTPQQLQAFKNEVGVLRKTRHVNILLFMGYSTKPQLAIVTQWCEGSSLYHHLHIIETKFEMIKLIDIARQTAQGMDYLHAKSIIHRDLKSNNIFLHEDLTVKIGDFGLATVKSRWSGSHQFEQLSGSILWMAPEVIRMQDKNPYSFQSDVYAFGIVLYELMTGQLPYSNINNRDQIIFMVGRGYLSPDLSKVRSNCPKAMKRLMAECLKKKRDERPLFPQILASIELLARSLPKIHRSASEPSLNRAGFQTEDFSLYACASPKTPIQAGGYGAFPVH
T2 sequence (P50750 whole entry): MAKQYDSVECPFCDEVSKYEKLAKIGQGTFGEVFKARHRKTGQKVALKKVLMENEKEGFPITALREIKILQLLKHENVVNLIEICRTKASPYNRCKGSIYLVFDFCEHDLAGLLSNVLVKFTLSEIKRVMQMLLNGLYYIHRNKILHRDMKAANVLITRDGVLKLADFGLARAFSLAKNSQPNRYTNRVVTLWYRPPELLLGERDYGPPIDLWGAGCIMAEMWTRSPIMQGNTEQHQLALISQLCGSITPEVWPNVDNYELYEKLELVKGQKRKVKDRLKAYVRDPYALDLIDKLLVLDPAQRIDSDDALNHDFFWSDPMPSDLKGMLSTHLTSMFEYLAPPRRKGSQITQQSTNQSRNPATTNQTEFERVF
T1 sequence (Q06187 whole entry): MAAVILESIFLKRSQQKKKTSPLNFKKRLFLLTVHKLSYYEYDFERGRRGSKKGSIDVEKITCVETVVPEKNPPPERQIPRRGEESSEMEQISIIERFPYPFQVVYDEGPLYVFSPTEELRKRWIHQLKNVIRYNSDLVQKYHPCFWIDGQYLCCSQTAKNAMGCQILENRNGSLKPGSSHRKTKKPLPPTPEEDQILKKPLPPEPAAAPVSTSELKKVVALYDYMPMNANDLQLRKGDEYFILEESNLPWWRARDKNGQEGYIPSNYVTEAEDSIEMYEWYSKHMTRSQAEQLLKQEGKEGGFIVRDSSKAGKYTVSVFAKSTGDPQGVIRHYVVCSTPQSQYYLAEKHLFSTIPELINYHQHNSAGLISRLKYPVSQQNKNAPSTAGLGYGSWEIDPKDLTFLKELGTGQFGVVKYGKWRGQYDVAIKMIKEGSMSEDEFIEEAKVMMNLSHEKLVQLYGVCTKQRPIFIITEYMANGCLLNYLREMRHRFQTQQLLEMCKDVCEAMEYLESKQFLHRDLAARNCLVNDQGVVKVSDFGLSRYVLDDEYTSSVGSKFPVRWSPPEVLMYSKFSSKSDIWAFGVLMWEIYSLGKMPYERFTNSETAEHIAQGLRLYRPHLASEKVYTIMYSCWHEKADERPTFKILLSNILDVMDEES
T12 sequence (P00519 whole entry E255K): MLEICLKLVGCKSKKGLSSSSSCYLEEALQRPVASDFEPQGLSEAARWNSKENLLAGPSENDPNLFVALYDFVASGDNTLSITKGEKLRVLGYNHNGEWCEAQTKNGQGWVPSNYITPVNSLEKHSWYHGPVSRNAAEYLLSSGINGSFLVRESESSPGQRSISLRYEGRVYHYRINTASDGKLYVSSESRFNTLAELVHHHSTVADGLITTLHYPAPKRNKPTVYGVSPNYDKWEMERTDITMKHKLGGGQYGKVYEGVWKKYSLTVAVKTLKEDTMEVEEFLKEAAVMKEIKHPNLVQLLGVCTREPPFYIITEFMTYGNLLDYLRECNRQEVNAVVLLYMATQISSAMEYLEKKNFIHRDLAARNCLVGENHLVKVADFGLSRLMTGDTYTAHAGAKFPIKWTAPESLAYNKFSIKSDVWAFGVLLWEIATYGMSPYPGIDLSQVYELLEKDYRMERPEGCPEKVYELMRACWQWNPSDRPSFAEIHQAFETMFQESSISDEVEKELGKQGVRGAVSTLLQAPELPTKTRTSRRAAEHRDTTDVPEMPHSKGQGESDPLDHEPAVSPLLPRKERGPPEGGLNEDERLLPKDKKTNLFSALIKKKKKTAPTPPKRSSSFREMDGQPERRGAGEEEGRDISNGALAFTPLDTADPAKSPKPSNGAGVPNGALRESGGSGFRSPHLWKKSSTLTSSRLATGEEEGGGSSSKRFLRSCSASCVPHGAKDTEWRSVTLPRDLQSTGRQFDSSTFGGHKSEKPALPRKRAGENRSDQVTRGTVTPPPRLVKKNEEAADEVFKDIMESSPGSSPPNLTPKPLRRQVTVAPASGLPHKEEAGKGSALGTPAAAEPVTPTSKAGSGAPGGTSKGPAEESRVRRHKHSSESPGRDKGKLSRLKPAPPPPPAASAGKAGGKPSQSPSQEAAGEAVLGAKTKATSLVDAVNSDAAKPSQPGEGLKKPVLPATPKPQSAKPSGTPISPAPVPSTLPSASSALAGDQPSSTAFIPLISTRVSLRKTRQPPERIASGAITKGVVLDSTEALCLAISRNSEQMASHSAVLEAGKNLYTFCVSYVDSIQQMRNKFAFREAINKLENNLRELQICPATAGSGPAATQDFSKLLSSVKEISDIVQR
T13 sequence (P00519 whole entry): as the sequence (P00519 whole entry E255K) above, with K255E counted along it

Structure (SMILES) | inhibition of colony formation in 3D culture (in words) [1] | % Ctrl BTK (BTK) [% Ctrl] | % Ctrl CDK9 (CDK9) [% Ctrl] | % Ctrl EGFR (EGFR) [% Ctrl] | % Ctrl EPHA2 (EPHA2) [% Ctrl] | % Ctrl JAK2(JH1domain-catalytic) [2] [% Ctrl] | % Ctrl MKNK2 (MKNK2) [% Ctrl] | % Ctrl p38-alpha (p38-alpha) [% Ctrl] | % Ctrl PKAC-alpha (PKAC-alpha) [% Ctrl] | % Ctrl TYK2(JH1domain-catalytic) [3] [% Ctrl] | IC50 (BRAF^WT) [nM] | IC50 (PDFGRα) [nM] | % Ctrl ABL1(E255K)-phosphorylated [4] [% Ctrl] | % Ctrl ABL1-phosphorylated (ABL1-phosphorylated) [% Ctrl] | IC50 (FGFR1; 100 μM ATP) [nM] | reduction of inhibitory activity on FGFR compared to Ponatinib (FGFR1; PHI1 versus Ponatinib) [fold] | reduction of inhibitory activity on FLT3 compared to Ponatinib (FLT3) | IC50 (KIT) [nM]
Cc1ccc(C(=O)Nc2ccc(CN3CCN(C)CC3)c(C(F)(F)F)c2)cc1C#Cc1cnc2cccnn12 [Ponatinib, 3-[2-(imidazo[1,2-b]pyridazin-3-yl)ethynyl]-4-methyl-N-{4-[(4-methylpiperazin-1-yl)methyl]-3-(trifluoromethyl)phenyl}benzamide] | increased efficacy to inhibit colony formation as compared to Vemurafenib | 22 | 28 | 15 | 0 | 9.5 | 0.6 | 0 | 8.1 | 8.6 | – | – | – | – | – | – | – | –
Cc1ccc(C(=O)Nc2ccc(CNCCN3CCOCC3)c(C(F)(F)F)c2)cc1C#Cc1cnc2cccnn12 [PHI1] | – | – | – | – | – | – | – | – | – | – | 323 ± 35 | 8.3 ± 1.5 | 0.25 | 0.1 | 624 ± 25 | 43 | tenfold | 548 ± 21
